In patent publication US4812483A, “Insecticidal alkenes” (Imperial Chemical Industries PLC, priority 1985, dated 1989):

How the values were obtained:
Type in all cases: in vivo
[1] = tested on: Diabrotica balteata (rootworm larvae); assay: Residual test, mortality of rootworm larvae (DB); conditions: 72 h, filter paper/maize seed, 3 days, read-out: grading of mortality, DB
Description: (§1) The activity of the compound was determined using a variety of insect pests. The compound was used in the form of liquid preparations containing 500 parts per million (ppm) by weight of the compound. The preparations were made by dissolving the compound in acetone and diluting the solutions with water containing 0.01% by weight of a wetting agent sold under the trade name "LISSAPOL" NX until the liquid preparations contained the required concentration of the compound. "Lissapol" is a Registered Trade Mark.
(§2) The test procedure adopted with regard to each pest was basically the same and comprised supporting a number of the pests on a medium which was usually a host plant or a foodstuff on which the pests feed, and treating either or both the pests and the medium with the preparations. The mortality of the pests was then assessed at periods usually varying from one to three days after the treatment.
(§3) The results of the tests are given in Table III for each of the compounds, at the rate in parts per million given in the second column as a grading of mortality designated as A, B or C wherein A indicates 80-100% mortality or knockdown, B indicates 50-79% mortality or knockdown and C indicates less than 50% mortality or knockdown.
(§4) In Table III the pest organism used is designated by a letter code and the pests species, the support medium or food, and the type and duration of test is given in Table II.

[2] = tested on: Nilaparvata lugens (green leaf hopper); assay: Contact test, mortality of Nilaparvata lugens (NL); conditions: 144 h, cabbage leaf, 6 days, read-out: grading of mortality, NL
Description: as §1, §2, §3, §4

[3] = tested on: Chilo partellurs (Stem borers); assay: Residual test, mortality of stem borers (CP); conditions: 72 h, oil seed rape leaf, 3 days, read-out: grading of mortality, CP
Description: as §1, §2, §3, §4

Myzus persicae (aphids) = assay: Contact test, mortality of aphids (MP); conditions: 48 h, leaf, 2 days, read-out: grading of mortality, MP
Description: as §1, §2, §3, §4

[4] = tested on: Musca domestica (houseflies - adults); assay: Contact test, mortality of houseflies (MD); conditions: 24 h, cotton wool/sugar, 1 day, read-out: grading of mortality, MD
Description: as §1, §2, §3, §4

[5] = tested on: Heliothis viriscens (tobacco budworm); assay: whole plant or invertebrate; conditions: in Gossypium hirsutum, 72 h, read-out: grading of mortality, HV
Description: as §1, §2, §3, §4

[6] = tested on: Blattella germanica (cockroach nymphs); assay: Residual test, mortality of cockroach nymphs (BG); conditions: 72 h, plastic pot, 3 days, read-out: grading of mortality, BG
Description: as §1, §2, §3, §4

[7] = tested on: Tetranychus urticae (red spider mites - adult); assay: Contact test, mortality of red spider mites (TU); conditions: 72 h, French bean leaf, 3 days, read-out: grading of mortality, TU
Description: as §1, §2, §3, §4
(red spider mites - adult)

SMILES	mortality at 500 ppm [1] [%]	mortality at 500 ppm [2] [%]	mortality at 500 ppm [3] [%]	mortality at 500 ppm (Myzus persicae (aphids)) [%]	mortality at 500 ppm [4] [%]	mortality at 500 ppm [5] [%]	mortality at 500 ppm [6] [%]	mortality at 500 ppm [7] [%]
CC(C)(C=C(Cl)Cl)COCc1ccc(F)c(Oc2ccccc2)c1 [Compound 1, 2,2-dimethyl-1-(4-fluoro-3-phenoxybenzyloxy)-4,4-dichlorobut-3-ene]	80 to 100	80 to 100	80 to 100	< 50	80 to 100	80 to 100	80 to 100	–
C=CC(C)(C)COCc1cccc(Oc2ccccc2)c1 [Compound 2, 3,3-Dimethyl-4-(3-phenoxybenzyloxy)but-1-ene]	80 to 100	80 to 100	–	< 50	80 to 100	< 50	< 50	–
CC(C)(C=C(Br)Br)COCc1cccc(Oc2ccccc2)c1 [Compound 3, 2,2-dimethyl-1-(3-phenoxybenzyloxy)-4,4-dibromobut-3-ene]	< 50	50 to 79	80 to 100	< 50	< 50	< 50	< 50	–
CC(C)(C=C(Cl)Cl)COCc1cccc(Oc2ccccc2)c1 [Compound 4, 2,2-dimethyl-1-(3-phenoxybenzyloxy)-4,4-dichlorobut-3-ene]	< 50	80 to 100	–	< 50	< 50	< 50	< 50	< 50
C=CC(C)(C)COCc1ccc(F)c(Oc2ccccc2)c1 [Compound 5, 3,3-dimethyl-4-(4-fluoro-3-phenoxybenzyloxy)but-1-ene]	80 to 100	80 to 100	–	80 to 100	80 to 100	< 50	80 to 100	80 to 100
C=CC1(COCc2cccc(Oc3ccccc3)c2)CC1 [Compound 6, 1-(3-phenoxybenzyloxymethyl)-1-vinylcyclopropane]	< 50	50 to 79	< 50	< 50	< 50	< 50	< 50	< 50
CC(C)(/C=C/Br)COCc1cccc(Oc2ccccc2)c1 [Compound 7, E-2,2-dimethyl-1-(3-phenoxybenzyloxy)-4-bromobut-3-ene]	< 50	50 to 79	< 50	< 50	< 50	< 50	< 50	< 50
C=CC(C)(CC)COCc1cccc(Oc2ccccc2)c1 (stereo not shown) [Compound 8, 3-Ethyl-3-methyl-4(3-phenoxybenzyloxy)but-1-ene]	80 to 100	80 to 100	–	< 50	80 to 100	< 50	< 50	80 to 100
ClC(Cl)=CC1(COCc2cccc(Oc3ccccc3)c2)CC1 [Compound 9, 1-(2,2-dichlorovinyl)-1-(3-phenoxybenzyloxymethyl)cyclopropane]	50 to 79	80 to 100	–	80 to 100	80 to 100	< 50	50 to 79	< 50
CC(C)(C=CCl)COCc1cccc(Oc2ccccc2)c1 [Compound 10, 2,2-dimethyl-1-(3-phenoxybenzyloxy)-4-chlorobut-3-ene]	80 to 100	80 to 100	< 50	< 50	50 to 79	–	< 50	< 50
CC(C)(C=C(F)Cl)COCc1cccc(Oc2ccccc2)c1 [Compound 11, Z,E-2,2-dimethyl-1-(3-phenoxybenzyloxy)-4-chloro-4-fluorobut-3-ene]	80 to 100	80 to 100	–	< 50	50 to 79	50 to 79	50 to 79	< 50
C=CC(C)(C)COCc1cccc(Oc2ccccc2)n1 [Compound 12, 3,3-Dimethyl-4-(6-phenoxypyrid-2-yl)methoxy-but-1-ene]	80 to 100	80 to 100	–	< 50	< 50	< 50	< 50	< 50
CC(C)(C=C(Cl)Cl)COCc1cccc(Oc2ccccc2)n1 [Compound 13, 2,2-dimethyl-1-(6-phenoxypyrid-2-yl)methoxy-4,4-dichlorobut-3-ene]	80 to 100	80 to 100	–	50 to 79	50 to 79	80 to 100	80 to 100	< 50
C=CC(C)(C)COCc1ccc(F)c(Cc2ccccc2)c1 [Compound 14, 3,3-Dimethyl-4-(3-benzyl-4-fluorobenzyloxy)but-1-ene]	80 to 100	80 to 100	–	< 50	80 to 100	< 50	50 to 79	< 50
CC(C)(C=C(F)F)COCc1ccc(F)c(Oc2ccccc2)c1 [Compound 15, 2,2-dimethyl-1-(4-fluoro-3-phenoxybenzyloxy)-4,4-difluorobut-3-ene]	80 to 100	80 to 100	–	80 to 100	80 to 100	80 to 100	80 to 100	80 to 100
CC(C)(C=C(F)F)COCc1cccc(Oc2ccccc2)n1 [Compound 16, 2,2-dimethyl-1-(6-phenoxypyrid-2-yl)methoxy-1,1-difluorobut-1-ene]	80 to 100	80 to 100	–	80 to 100	–	80 to 100	80 to 100	80 to 100
CC(C)(C=C(F)F)COCc1cccc(Oc2ccccc2)c1 [Compound 17]	80 to 100	80 to 100	–	< 50	–	< 50	80 to 100	< 50
CC(C)(C=C(F)F)COCc1ccc(F)c(Cc2ccccc2)c1 [Compound 18]	80 to 100	80 to 100	–	< 50	–	80 to 100	80 to 100	50 to 79
CC(C)(C=C(F)Cl)COCc1cccc(Oc2ccccc2)n1 [Compound 19, E,Z-2,2-dimethyl-1-(6-phenoxypyrid-2-yl)methoxy-4-chloro-4-fluorobut-3-ene]	80 to 100	80 to 100	–	50 to 79	–	< 50	50 to 79	50 to 79
CC(C)(C=C(Cl)Cl)COCc1ccc(F)c(Cc2ccccc2)c1 [Compound 20, 2,2-dimethyl-1-(3-benzyl-4-fluorobenzyloxy)-4,4-dichlorobut-3-ene]	< 50	80 to 100	–	< 50	–	< 50	< 50	< 50
